Measurements reported in patent publication US20090186942A1, “NOVEL NUTRACEUTICAL AND PHARMACEUTICAL COMPOSITIONS AND USE THEREOF FOR THE TREATMENT, CO-TREATMENT OR PREVENTION OF INFLAMMATORY DISORDERS” (priority 2006, published 2009).
Values belong to the compound of their own block, whether it stands above or below them.

Columns and labels:
Assay type in all cases: cell-based
[1] = tested on: murine macrophage indicator cell line, RAW267.4; assay: Inhibition of nitric oxide production in LPS-stimulated macrophages (Griess reaction); conditions: single substances, RAW267.4 cells, LPS 1 μg/ml, 24 hours
Method: (§1) Pure substances were then further assayed in vitro in cellular cell systems. The inhibition of the synthesis of nitric oxide and/or pro-inflammatory prostaglandins (PG) by the compounds was measured. PGE2 plays a critical role in the inflammation process, while nitric oxide (NO) is a hallmark of inflammation in various chronic inflammatory diseases including various forms of arthritis, gastro-intestinal diseases and metabolic syndrome X. The effects of compounds on the inflammatory response were tested in cellular assays using a murine macrophage indicator cell line, RAW267.4. The cells were purchased from ATCC (Manassas, Va., USA) and cultured in DMEM containing streptomycin/penicillin, non-essential amino acids and 10% fetal calf serum (FCS). In order to test a large range of concentration of compounds, cells (˜50,000/well) were seeded into flat-bottomed microtiter plates and cultured for one day. Cells were then starved in complete medium containing 0.25% FCS (D-025). After overnight culture, medium was removed and replaced by 100 μL of D-025 containing the test compounds at twice the final concentration. Subsequently, 100 μL of D-025 containing 2 μg/ml LPS was added (i.e. final LPS concentration of 1 μg/ml) and the cells cultured for 24 hours.
(§2) Substances were tested in a concentration range from 0.2 to 50 μM in two-fold dilution steps. Extracts were tested from 0.2 to 50 mg/L. All treatments were done in duplicates and several experimental series were done for each treatment. Concentrations of nitrite which was rapidly formed from nitric oxide released by cells were determined by the Griess reaction using sodium nitrite as standard. Briefly, 50 μl of supernatant was mixed with Griess reagent 1 (25 μL) and Griess reagent 2 (25 μL), centrifuged and the optical density at 540 nm determined. PGE2 secreted into the cell culture medium was determined by EIA obtained from Cayman Chemicals (Ann Harbor, […]., USA) and used according to the manufacturer's instructions. All determinations were done in duplicates and at various dilutions of the culture supernatant. IC50 values were calculated using a […] least-square fitting equation [y=A+((B−A)/(1+((C−x)̂D))] for best-fit curves (Excel fit software program).

[2] = tested on: murine macrophage indicator cell line, RAW267.4; assay: Inhibition of PGE2 production in LPS-stimulated macrophages (EIA); conditions: single substances, RAW267.4 cells, LPS 1 μg/ml, 24 hours
Method: as §1, §2

TNF-α = assay: Expression of inflammatory genes by quantitative RT-PCR: TNF-α; conditions: RAW 264.7 cells, 4 hours
Method: (§3) The effect of the compounds has been evaluated on the level of the expression of genes that are involved in the inflammatory response. These comprise e.g. the following genes TNF-α, IL-6, MIP1β and NF-κB1 and NF-κBp49, the latter two of which are transcription factors involved in the regulation of inflammatory gene expression. After 4 hours, RNA was extracted and the expression of genes determined by quantitative RT-PCR as described (Richard, N., Porath, D., Radspieler, A. and Schwager, J. Effects of resveratrol, piceatannol, tri-acetoxystilbene, and genistein on the inflammatory response of human peripheral blood leukocytes. Mol Nutr Food Res 2005. 49: 431-442).

IL-6 = assay: Expression of inflammatory genes by quantitative RT-PCR: IL-6; conditions: RAW 264.7 cells, 4 hours
Method: as §3

[3] = tested on: macrophage inflammatory protein 1 [MIP-1]; assay: Expression of inflammatory genes by quantitative RT-PCR: MIP-1; conditions: RAW 264.7 cells, 4 hours
Method: as §3

NF-κB1 = assay: Expression of inflammatory genes by quantitative RT-PCR: NF-κB1; conditions: RAW 264.7 cells, 4 hours
Method: as §3

NF-κBp49 = assay: Expression of inflammatory genes by quantitative RT-PCR: NF-κBp49; conditions: RAW 264.7 cells, 4 hours
Method: as §3

SMILES: Oc1ccc(C=Cc2cc(O)cc(O)c2)cc1 [Resveratrol, reference compound]
IC50 ([1]; Mus musculus): 31 ± 2 µM | IC50 ([2]; Mus musculus): 24 ± 2 µM

SMILES: C=CC/C=C\C/C=C\CCCCCCCc1cc(O)cc(O)c1 [Cardoltriene]
IC50 [1]: 4.9 ± 0.8 µM | IC50 [2]: 0.9 ± 0.2 µM

SMILES: O=C(O[C@@H]1Cc2c(O)cc(O)cc2O[C@@H]1c1cc(O)c(O)c(O)c1)c1cc(O)c(O)c(O)c1 [EGCG, reference compound]
IC50 [1]: 33 ± 2 µM | IC50 [2]: 35 µM

Now from value to compound, other results behind:

IC50 [1]: 7.4 ± 0.4 µM | IC50 [2]: 26.6 ± 21.1 µM
SMILES: C=CC/C=C\C/C=C\CCCCCCCc1cccc(O)c1C(=O)O [(15:3)-Anacardic acid]
% expression TNF-α mRNA relative to cells stimulated with LPS only (TNF-α; 6.25 μM/L): 76% | % expression TNF-α mRNA relative to cells stimulated with LPS only (TNF-α; 12.5 μM/L): 54% | Effect on TNF-α expression (in words) (TNF-α): significantly reduced | % expression IL-6 mRNA relative to cells stimulated with LPS only (IL-6; 6.25 μM/L): 65% | % expression IL-6 mRNA relative to cells stimulated with LPS only (IL-6; 12.5 μM/L): 71% | % expression MIP-1-α mRNA relative to cells stimulated with LPS only ([3]; 6.25 μM/L): 58% | % expression MIP-1-α mRNA relative to cells stimulated with LPS only ([3]; 12.5 μM/L): 41% | Effect on MIP-1β expression (in words) [3]: significantly reduced | % expression NF-κB1 mRNA relative to cells stimulated with LPS only (NF-κB1; 6.25 μM/L): 86% | % expression NF-κB1 mRNA relative to cells stimulated with LPS only (NF-κB1; 12.5 μM/L): 78% | % expression NF-κBp49 mRNA relative to cells stimulated with LPS only (NF-κBp49; 6.25 μM/L): 74% | % expression NF-κBp49 mRNA relative to cells stimulated with LPS only (NF-κBp49; 12.5 μM/L): 57%

IC50 [1]: 82.4 ± 6.7 µM | IC50 [2]: 43.1 ± 5.5 µM
SMILES: CCC/C=C\C/C=C\CCCCCCCc1cccc(O)c1C(=O)O [(15:2)-Anacardic acid]

IC50 [1]: > 100 µM | IC50 [2]: 57.8 µM
SMILES: CCCCCC/C=C\CCCCCCCc1cccc(O)c1C(=O)O [Ginkoic acid, Ginkgoic acid]
